One assay relates to blood cells. The format is in vivo, C57BL/6 mice. As to conditions: 10 μg ESAT-6/dose, three times.
A further assay relates to ESAT-6. As to conditions: in vivo.

`CCCCCCCCCCCCCCCCCC[N+](C)(C)CCCCCCCCCCCCCCCCCC.[Br-]` [DDA]: the “ESAT-6 specific recall response, IFN-γ, Expt. I” value with blood cells was under 50 pg/mL. Further, in the assay with ESAT-6, the “ESAT-6 specific IgG (end-point titer), Expt. I” value is given as under 3 and the “ESAT-6 specific IgG (end-point titer), Expt. II” value is reported as under 3.

The record behind these values is patent US20050191308A1 (priority 1999, published 2005).
